Assay results from patent US20210023089A1, “Compositions Useful for Treating Herpes Simplex Keratitis, and Methods Using Same” (priority 2013, published 2021).

Assays:
ATM [1] = experiment: ATM activation (pChk2 Western blot) in HSV-1 infected hTCEpi cells; assay type: cell-based, human; conditions: for effect on ATM activation (pChk2 staining): hTCEpi infected with HSV-1 at a range of MOIs, 1 hpi, PAA 400 μg/ml, CHX 5 μg/ml
Procedure: Standard protocol was followed for Western blot analysis. Cell lysates were collected in Laemmli buffer, vortexed, and boiled at 95° C. for 5 min. Protein concentrations were measured by reducing agent-compatible BCA assay. SDS-PAGE was followed by transfer onto a PVDF membrane, which was then blocked in 5% BSA. Primary antibody staining was performed overnight and blots were visualized on film or with the Odyssey near-infrared system (LI-COR, Lincoln, Nebr.). Primary antibodies against the following proteins were used: ICP0 (Virusys Corporation, Taneytown, Md.), ICP4, PML, and nucleolin (Santa Cruz Biotechnology, Santa Cruz, Calif.), ICP8, glycoproteins B and C, ATM and pATM-Ser1981 (Rockland, Gilbertsville, Pa.), Chk2 and pChk2-Thr68 (Cell Signaling, Danvers, Mass.).
(§1) hTCEpi, EPC2, and OKF6 are normal human epithelial cells from cornea, esophagus, and palate, respectively. HEK293 are human embryonic kidney epithelial cells. Cells were treated with tissue culture grade KU-55933 (10 μM), cycloheximide (5 μg/ml), phosphonoacetic acid (400 μg/ml), and H2O2 (150 μM). Viral particles were pre-treated with UV light at 0.2 J/cm^2.
Cultured cells were infected by applying the desired viral load in an inoculum volume equal to 10% of the normal volume of growth medium. During infection, cells were maintained at 37° C. and 5% CO2 and rocked every 10-15 min for 1 hour. Cells were then rinsed thoroughly with PBS and overlaid with fresh medium. For synchronized infections, virus was allowed to adsorb to cells while rocking at 4° C. After 1 hour, cells were transferred to 37° C. and 5% CO2 to initiate synchronized infection.

ATM [2] = experiment: pATM immunofluorescence in HEK293 cells transfected with purified HSV-1 genome; assay type: cell-based, human; conditions: HEK293 transfected with HSV-1 KOS genome, PAA for 24 hours
Procedure: Transfection of plasmids was done with GenDrill (BamaGen, Gaithersburg, Md.), whereas transfection of BACs was accomplished with Lipofectamine transfection reagent (Invitrogen, Carlsbad, Calif.). All transfections followed standard protocols and manufacturer's instructions. Medium was changed at 6 hour post transfection.
Cells were grown on cover slips, treated as indicated, fixed in 3% paraformaldehyde/2% sucrose solution for 10 min, and permeabilized with 0.5% Triton X-100 for 5 min. Indirect immunofluorescence was performed with primary antibodies overnight followed by secondary antibody staining for 2 hours. Primary antibodies were the same as those used for Western blotting. Nuclei were counterstained with […] of Höchst 33258.
as §1

[3] = test system: dlsptk strain of HSV-1 (TK mutant); experiment: qPCR of genome replication of drug-resistant HSV-1 in hTCEpi cells; assay type: cell-based; conditions: MOI 0.1, 16 hpi, KU-55933 10 μM, acyclovir 50 μg/mL
Procedure: All cells were cultured at 37° C. and 5% CO2 and supplemented with 100 U/mL penicillin and […]. Human corneal epithelial cells immortalized with hTERT (hTCEpi; Robertson, et al., 2005, Invest Ophthalmol Vis Sci. 46:470-478) were grown in complete keratinocyte growth medium 2 (KGM-2; Lonza, Basel, Switzerland). African green monkey kidney fibroblasts (CV-1; American Type Culture Collection, Manassas, Va.) were grown in Dulbecco's modified Eagle's medium (DMEM; Cellgro, Manassas, Va.) supplemented with 10% FBS. The KOS strain of HSV-1 was used in the in vitro and ex vivo infections, whereas McKrae strain was used for in vivo mouse experiments, and TK mutant dlsptk strain (Coen et al., 1989, Proc Natl Acad Sci USA 86:4736-4740) was used in the drug resistance experiments. All viral stocks were titered on CV-1 monolayers.
The following strains of HSV-1 were used: KOS, ICPO-null, HFEM, and tsB7. Subconfluent monolayers of cells were grown in six-well plates. Drug treatments were administered 45 minutes prior to infection and continued for the entire duration of each experiment. Unless indicated otherwise, KU-55933 (Batch No. 5, 99.7% purity; Tocris Bioscience, Bristol, UK) was used at 10 μM final concentration, phosphonoacetic acid (PAA) at 400 μg/mL (Sigma-Aldrich, St. Louis, Mo.), and acyclovir at 50 μg/mL (Sigma-Aldrich). KU-55933 was dissolved in dimethyl sulfoxide (DMSO), and the final concentration of DMSO in both KU-55933 and mock treatment in the in vitro and the ex vivo experiments was 0.1%.
Viral genome replication and transcription were measured by quantitative PCR (qPCR). Total DNA and RNA from infected cells were isolated using the DNeasy Blood & Tissue Kit and the RNeasy Mini Kit, respectively (QIAGEN, Hilden, Germany). RNA was converted to cDNA using qScript (Quanta BioSciences, Gaithersburg, Md.). […] Transcription of the three gene families was measured with primers for RL2 (ICPO), UL30 (DNA polymerase catalytic subunit), and UL44 (gC), with reference primers for the 18S ribosomal RNA (rRNA).

ATM [4] = target: T1, ATM (Homo sapiens, UniProt Q13315); experiment: pATM Western blot in bleomycin-damaged ex vivo human corneas (bioavailability); assay type: cell-based; conditions: bleomycin 200 μg/mL 1 hour, KU-55933 10 μM 1 hour pretreatment
T1 construct: The epithelial layers were collected for protein lysates and analyzed by Western blot with antibodies against pATM (Ser1981) and total ATM; tissue Lions Eye Bank of Delaware Valley; host or cells: epithelial layer of explanted human corneas
T1 sequence (Q13315 whole entry): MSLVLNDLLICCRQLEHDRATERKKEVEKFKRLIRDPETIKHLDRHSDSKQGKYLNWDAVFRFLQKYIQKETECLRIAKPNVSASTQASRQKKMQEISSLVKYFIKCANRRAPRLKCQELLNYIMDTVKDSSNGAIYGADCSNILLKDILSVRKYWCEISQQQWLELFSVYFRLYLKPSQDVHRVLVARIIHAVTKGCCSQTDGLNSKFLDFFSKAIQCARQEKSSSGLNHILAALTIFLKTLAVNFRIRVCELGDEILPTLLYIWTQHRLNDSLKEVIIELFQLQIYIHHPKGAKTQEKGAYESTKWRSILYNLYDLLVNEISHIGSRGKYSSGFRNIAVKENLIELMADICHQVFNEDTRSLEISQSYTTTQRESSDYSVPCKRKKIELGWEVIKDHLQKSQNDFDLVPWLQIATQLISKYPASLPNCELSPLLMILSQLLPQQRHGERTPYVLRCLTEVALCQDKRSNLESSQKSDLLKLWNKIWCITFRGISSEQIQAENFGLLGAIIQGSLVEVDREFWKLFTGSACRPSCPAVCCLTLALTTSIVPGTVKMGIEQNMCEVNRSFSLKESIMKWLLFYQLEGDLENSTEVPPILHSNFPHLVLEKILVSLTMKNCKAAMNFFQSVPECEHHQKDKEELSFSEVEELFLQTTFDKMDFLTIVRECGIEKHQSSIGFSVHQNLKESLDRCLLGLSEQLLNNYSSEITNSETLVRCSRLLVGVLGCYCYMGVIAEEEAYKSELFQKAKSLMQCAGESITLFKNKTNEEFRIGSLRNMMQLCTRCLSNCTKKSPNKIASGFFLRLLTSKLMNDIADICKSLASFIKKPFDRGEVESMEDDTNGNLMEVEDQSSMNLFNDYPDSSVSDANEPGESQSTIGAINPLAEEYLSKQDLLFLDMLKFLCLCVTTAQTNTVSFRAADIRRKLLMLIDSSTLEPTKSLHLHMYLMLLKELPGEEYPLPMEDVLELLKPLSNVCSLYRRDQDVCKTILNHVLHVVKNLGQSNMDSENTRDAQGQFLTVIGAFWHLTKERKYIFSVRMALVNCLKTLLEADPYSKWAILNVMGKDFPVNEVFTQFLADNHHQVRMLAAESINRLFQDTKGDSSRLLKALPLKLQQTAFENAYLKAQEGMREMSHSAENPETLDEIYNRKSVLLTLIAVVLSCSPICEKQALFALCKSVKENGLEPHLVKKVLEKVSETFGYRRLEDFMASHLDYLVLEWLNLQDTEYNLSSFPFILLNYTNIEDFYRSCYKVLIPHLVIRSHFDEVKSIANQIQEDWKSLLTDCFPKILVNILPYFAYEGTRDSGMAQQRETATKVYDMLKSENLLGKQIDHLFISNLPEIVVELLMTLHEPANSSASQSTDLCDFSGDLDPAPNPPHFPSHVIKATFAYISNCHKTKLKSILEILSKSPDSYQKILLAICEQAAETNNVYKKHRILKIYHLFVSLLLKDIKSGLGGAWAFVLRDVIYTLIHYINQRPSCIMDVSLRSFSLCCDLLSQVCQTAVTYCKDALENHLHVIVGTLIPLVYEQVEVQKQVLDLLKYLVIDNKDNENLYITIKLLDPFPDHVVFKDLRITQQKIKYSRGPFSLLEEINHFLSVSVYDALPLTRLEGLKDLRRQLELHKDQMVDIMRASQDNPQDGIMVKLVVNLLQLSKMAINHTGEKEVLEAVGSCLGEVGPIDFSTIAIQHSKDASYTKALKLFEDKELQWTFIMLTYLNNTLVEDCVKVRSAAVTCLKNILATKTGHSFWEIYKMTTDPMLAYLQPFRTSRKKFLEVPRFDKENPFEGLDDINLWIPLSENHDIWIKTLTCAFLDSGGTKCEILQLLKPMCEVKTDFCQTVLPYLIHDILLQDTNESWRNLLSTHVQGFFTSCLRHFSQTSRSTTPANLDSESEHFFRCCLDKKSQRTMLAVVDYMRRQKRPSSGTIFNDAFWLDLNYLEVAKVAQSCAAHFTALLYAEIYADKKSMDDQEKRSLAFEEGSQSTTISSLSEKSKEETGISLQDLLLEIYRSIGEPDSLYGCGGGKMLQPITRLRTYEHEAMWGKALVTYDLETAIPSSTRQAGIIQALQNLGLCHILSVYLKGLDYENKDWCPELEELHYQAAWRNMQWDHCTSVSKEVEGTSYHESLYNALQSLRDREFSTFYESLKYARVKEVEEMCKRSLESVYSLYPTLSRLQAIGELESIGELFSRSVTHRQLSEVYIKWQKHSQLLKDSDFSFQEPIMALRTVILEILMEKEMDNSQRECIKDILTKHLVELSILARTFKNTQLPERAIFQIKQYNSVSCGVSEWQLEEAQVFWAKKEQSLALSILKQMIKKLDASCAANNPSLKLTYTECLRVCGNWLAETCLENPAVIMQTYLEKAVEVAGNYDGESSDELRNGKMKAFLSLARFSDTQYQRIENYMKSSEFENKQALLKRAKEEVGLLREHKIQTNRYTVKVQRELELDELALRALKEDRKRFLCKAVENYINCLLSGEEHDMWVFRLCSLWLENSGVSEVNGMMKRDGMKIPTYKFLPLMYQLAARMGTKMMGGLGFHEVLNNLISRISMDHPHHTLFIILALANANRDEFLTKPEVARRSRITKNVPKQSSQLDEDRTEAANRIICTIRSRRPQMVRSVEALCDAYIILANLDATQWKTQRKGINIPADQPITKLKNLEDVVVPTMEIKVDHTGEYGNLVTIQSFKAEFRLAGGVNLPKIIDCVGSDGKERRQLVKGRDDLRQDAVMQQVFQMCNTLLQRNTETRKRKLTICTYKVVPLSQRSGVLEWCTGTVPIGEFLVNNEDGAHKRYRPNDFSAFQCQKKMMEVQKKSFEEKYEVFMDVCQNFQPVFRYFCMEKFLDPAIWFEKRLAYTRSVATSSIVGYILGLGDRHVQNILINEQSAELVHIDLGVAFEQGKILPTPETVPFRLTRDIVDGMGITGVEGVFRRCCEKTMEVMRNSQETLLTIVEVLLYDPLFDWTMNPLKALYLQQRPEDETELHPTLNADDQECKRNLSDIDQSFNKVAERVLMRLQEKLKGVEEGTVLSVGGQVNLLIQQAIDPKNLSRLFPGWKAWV
Procedure: Human corneas were obtained from the Lions Eye Bank of Delaware Valley. Rabbit corneas were excised from intact fresh eyeballs of young (8-12 weeks) albino rabbits (Pel-Freez Biologicals, Rogers, Ark.). Protocol (Alekseev et al., 2012, J Vis Exp 69:e3631) for ex vivo corneal culture, infection, and treatment was followed closely. Briefly, corneoscleral buttons were excised and rinsed in PBS containing 200 U/mL penicillin and 200 μg/mL streptomycin. The endothelial concavity was filled with culture medium containing 1% low melting temperature agarose. The corneas were cultured epithelial side up in MEM medium supplemented with nonessential amino acids (1×), 2 mM […], 200 U/mL penicillin, and 200 μg/mL streptomycin. The next day, they were infected with 1×10^4 plaque forming units (PFU)/cornea of strain KOS HSV-1 for 1 hour, rinsed, and overlaid with fresh medium. Drug treatments were administered at the same concentrations as for cultured cells. For KU-55933 bioavailability assessment, corneas were treated with bleomycin (200 μg/mL) for 1 hour. […] Treatment toxicity was assessed by briefly staining the cornea with fluorescein (1% wt/vol in PBS) and imaging the epithelial defects with 464-nm wavelength blue light (LDP LLC, Carlstadt, N.J.).
Standard protocol was followed for Western blot analysis. […] Protein concentrations were measured by bicinchoninic acid (BCA) assay. […]

Q: Which results are given for `C[C@@H]1C[C@@H]([C@H](O)CC2CC(=O)NC(=O)C2)C(=O)[C@@H](C)C1` [CHX, cycloheximide]?
A: effect on pChk2 staining in PML-depleted cells (ATM [1]; PML-depleted hTCEpi cells, compared with WT hTCEpi cells): same partial reduction; effect on ATM activation (pChk2 staining) (ATM [1]): partial inhibitory effect; effect on ATM activation by d120 (ICP4-null strain) (ATM [1]; hTCEpi infected with d120, CHX 5 μg/ml): not affected

Q: `O=C(O)CP(=O)(O)O` [PAA, phosphonoacetic acid] was tested. Which “effect on ATM activation (pChk2 staining)” value (ATM [1]) did it give?
A: no effect

Q: What about the “ATM activation (pATM staining) in treated transfected cells” value (ATM [2]) of the same molecule?
A: not hindered in ATM activation

Q: With `Nc1nc2c(ncn2COCCO)c(=O)[nH]1` [acyclovir] as the molecule, how does the “genome replication of dlsptk strain (qPCR)” value [3] read?
A: largely unresponsive

Q: How did the “pATM level in corneal epithelium” value (ATM [4]) turn out when bleomycin was run?
A: high level of pATM
